Measurements taken from the kinase profiling compilation of Christmann-Franck et al. (2016).

Key:
Assay in all cases: KINOMEscan competition binding
Conditions in all cases: compound 10.0 µM
[1] = molecular target: CAMK2B (human) (UniProt Q13554)
[2] = molecular target: FLT1 (human) (UniProt P17948)
[3] = molecular target: TYK2 JH2 pseudokinase (human) (UniProt P29597)
[4] = molecular target: MAPK10 (human) (UniProt P53779)
[5] = molecular target: JAK2 JH1 catalytic (human) (UniProt O60674)
[6] = molecular target: FGFR2 (human) (UniProt P21802)
[7] = molecular target: EPHA4 (human) (UniProt P54764)
[8] = molecular target: FLT4 (human) (UniProt P35916)
[9] = molecular target: FGFR3 (human) (UniProt P22607)
[10] = molecular target: ACVRL1 (human) (UniProt P37023)
[11] = molecular target: MAP3K10 (human) (UniProt Q02779)
[12] = molecular target: FRK (human) (UniProt P42685)
[13] = molecular target: MST4 (human) (UniProt Q9P289)
[14] = molecular target: DYRK1B (human) (UniProt Q9Y463)
[15] = molecular target: PLK4 (human) (UniProt O00444)
[16] = molecular target: NEK2 (human) (UniProt P51955)
[17] = molecular target: AKT3 (human) (UniProt Q9Y243)
[18] = molecular target: RIOK2 (human) (UniProt Q9BVS4)
[19] = molecular target: STK17B (human) (UniProt O94768)
[20] = molecular target: CDK7 (human) (UniProt P50613)
[21] = molecular target: RPS6KA6 KD2 (human) (UniProt Q9UK32)
[22] = molecular target: MAP3K3 (human) (UniProt Q99759)
[23] = molecular target: TGFBR2 (human) (UniProt P37173)
[24] = molecular target: PRKAA2 (human) (UniProt P54646)
[25] = molecular target: BMPR1A (human) (UniProt P36894)
[26] = molecular target: PKMYT1 (human) (UniProt Q99640)
[27] = molecular target: MAP4K3 (human) (UniProt Q8IVH8)
[28] = molecular target: PIP4K2B (human) (UniProt P78356)
[29] = molecular target: PIM2 (human) (UniProt Q9P1W9)
[30] = molecular target: CHEK2 (human) (UniProt O96017)
[31] = molecular target: RPS6KA5 KD2 (human) (UniProt O75582)
[32] = molecular target: MAP4K2 (human) (UniProt Q12851)
[33] = molecular target: FGFR1 (human) (UniProt P11362)
[34] = molecular target: AKT1 (human) (UniProt P31749)
[35] = molecular target: TGFBR1 (human) (UniProt P36897)
[36] = molecular target: CLK4 (human) (UniProt Q9HAZ1)
[37] = molecular target: PRKCE (human) (UniProt Q02156)
[38] = molecular target: ABL2 (human) (UniProt P42684)
[39] = molecular target: PLK1 (human) (UniProt P53350)
[40] = molecular target: MST1R (human) (UniProt Q04912)

Chain of FGFR3 (human) (P22607 whole entry, looked up): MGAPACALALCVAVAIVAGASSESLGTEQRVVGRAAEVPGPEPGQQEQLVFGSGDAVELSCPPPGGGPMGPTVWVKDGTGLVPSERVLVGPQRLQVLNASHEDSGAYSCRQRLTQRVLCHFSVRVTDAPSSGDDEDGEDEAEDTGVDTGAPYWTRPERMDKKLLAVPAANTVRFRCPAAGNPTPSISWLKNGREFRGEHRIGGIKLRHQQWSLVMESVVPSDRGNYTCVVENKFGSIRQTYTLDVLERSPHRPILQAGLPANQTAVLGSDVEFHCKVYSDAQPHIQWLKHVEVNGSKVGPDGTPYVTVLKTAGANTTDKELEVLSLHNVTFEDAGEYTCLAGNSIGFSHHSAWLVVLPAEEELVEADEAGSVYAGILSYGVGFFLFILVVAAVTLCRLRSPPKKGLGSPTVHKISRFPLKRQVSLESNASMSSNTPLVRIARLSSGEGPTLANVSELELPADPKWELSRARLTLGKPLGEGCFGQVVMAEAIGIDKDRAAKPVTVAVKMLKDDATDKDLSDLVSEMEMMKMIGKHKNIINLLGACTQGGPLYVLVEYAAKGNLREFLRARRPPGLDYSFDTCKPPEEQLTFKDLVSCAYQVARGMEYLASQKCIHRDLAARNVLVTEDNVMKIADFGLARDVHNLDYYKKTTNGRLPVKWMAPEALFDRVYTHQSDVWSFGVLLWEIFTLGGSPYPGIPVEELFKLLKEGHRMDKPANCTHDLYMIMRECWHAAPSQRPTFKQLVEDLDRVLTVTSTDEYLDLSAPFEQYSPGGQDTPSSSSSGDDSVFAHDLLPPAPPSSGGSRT
Chain of FLT1 (human) (P17948 whole entry, looked up): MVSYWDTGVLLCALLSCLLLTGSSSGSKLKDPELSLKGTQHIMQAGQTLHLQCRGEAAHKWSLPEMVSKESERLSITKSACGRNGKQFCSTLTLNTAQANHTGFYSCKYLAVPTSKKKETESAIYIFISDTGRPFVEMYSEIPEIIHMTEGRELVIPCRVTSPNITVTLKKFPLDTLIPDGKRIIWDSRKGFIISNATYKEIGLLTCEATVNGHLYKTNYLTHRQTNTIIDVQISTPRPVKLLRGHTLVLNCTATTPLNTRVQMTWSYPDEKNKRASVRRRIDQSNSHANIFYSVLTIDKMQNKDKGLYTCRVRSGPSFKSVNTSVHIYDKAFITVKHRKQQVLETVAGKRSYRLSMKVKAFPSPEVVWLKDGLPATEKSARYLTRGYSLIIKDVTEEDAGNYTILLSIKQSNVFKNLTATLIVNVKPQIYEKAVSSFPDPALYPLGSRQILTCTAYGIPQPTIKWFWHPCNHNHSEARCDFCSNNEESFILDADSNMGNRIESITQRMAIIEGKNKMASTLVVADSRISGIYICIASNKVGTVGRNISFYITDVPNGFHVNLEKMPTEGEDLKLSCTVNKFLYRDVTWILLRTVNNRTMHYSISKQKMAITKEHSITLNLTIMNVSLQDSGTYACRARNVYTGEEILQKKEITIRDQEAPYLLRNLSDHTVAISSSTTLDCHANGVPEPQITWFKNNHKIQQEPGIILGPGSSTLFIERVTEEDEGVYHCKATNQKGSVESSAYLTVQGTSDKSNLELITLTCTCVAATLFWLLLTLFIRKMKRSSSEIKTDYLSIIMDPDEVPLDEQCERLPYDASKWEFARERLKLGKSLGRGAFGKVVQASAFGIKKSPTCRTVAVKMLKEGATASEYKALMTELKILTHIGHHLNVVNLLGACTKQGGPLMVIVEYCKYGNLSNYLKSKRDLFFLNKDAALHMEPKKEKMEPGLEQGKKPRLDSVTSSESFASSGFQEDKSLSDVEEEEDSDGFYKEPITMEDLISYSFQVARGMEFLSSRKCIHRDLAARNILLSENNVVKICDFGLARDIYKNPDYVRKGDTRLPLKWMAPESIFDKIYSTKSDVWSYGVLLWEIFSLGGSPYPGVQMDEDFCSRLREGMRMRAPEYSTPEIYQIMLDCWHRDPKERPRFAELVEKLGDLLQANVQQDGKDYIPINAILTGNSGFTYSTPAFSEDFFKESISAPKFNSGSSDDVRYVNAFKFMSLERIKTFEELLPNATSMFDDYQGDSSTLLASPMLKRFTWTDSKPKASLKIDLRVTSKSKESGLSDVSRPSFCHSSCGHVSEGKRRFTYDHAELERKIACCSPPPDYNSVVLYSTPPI
Chain of MAP4K2 (human) (Q12851 whole entry, looked up): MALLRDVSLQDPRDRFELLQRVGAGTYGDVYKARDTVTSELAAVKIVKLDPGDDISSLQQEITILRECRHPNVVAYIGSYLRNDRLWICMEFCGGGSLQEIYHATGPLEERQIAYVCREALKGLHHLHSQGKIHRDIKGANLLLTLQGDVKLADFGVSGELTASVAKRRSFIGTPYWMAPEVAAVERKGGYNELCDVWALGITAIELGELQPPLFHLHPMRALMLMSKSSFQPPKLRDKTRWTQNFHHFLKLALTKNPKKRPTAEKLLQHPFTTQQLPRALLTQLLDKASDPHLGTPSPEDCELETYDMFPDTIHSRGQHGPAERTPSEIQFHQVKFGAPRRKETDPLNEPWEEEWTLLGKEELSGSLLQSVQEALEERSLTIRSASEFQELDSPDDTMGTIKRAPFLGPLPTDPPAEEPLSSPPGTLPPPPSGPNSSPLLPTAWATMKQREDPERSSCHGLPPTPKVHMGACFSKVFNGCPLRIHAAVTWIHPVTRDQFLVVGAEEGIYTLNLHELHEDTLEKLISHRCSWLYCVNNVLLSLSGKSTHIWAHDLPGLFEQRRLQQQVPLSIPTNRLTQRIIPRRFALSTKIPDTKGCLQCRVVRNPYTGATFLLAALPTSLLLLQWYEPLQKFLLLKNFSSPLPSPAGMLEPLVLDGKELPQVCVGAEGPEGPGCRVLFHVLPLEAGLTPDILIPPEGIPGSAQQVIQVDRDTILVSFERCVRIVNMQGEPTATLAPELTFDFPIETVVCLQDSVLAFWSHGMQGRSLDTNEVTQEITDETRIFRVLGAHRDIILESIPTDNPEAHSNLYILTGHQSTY
Chain of PIM2 (human) (Q9P1W9 whole entry, looked up): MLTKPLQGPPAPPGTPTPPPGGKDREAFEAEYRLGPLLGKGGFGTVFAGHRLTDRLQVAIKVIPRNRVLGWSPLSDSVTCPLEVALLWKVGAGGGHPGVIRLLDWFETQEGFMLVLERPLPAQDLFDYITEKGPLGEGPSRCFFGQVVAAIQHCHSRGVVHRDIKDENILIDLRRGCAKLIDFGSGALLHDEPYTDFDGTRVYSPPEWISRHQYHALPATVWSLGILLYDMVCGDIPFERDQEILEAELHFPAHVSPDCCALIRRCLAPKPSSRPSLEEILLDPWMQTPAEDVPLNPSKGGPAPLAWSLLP
Chain of MAP3K3 (human) (Q99759 whole entry, looked up): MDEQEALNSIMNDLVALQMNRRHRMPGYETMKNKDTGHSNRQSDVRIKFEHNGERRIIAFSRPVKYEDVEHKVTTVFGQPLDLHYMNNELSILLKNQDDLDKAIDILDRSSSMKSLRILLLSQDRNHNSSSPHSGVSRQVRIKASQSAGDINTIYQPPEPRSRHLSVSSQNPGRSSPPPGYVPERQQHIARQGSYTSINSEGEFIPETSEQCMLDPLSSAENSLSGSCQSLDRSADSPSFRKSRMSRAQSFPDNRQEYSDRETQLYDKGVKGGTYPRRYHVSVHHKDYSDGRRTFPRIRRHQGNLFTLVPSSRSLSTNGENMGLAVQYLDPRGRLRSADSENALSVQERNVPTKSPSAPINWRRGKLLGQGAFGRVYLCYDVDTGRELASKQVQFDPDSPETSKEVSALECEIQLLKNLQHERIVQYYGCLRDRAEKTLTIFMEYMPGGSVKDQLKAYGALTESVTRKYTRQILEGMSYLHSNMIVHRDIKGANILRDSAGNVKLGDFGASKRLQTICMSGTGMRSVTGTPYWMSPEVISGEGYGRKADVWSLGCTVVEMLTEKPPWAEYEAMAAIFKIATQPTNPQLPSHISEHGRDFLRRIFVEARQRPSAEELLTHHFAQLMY
Chain of PRKCE (human) (Q02156 whole entry, looked up): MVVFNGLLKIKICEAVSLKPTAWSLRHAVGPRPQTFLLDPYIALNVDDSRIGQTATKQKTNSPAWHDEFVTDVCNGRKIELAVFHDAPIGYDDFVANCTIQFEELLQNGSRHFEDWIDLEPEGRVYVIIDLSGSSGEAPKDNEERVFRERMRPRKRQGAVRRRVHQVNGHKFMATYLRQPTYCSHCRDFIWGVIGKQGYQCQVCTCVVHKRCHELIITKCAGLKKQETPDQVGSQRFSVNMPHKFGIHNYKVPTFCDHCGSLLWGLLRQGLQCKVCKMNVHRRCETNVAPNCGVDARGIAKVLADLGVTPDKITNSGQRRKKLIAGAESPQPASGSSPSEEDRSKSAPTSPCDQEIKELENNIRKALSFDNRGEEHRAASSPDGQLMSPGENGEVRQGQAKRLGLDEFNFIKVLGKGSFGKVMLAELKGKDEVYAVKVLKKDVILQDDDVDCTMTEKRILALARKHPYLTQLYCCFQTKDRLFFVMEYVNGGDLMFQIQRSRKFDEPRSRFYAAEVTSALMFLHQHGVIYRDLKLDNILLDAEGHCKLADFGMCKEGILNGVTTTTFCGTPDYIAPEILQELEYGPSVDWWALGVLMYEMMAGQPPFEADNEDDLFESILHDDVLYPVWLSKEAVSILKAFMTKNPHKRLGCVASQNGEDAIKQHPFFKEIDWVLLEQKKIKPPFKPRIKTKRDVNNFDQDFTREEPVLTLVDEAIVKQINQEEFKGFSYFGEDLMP
Chain of STK17B (human) (O94768 whole entry, looked up): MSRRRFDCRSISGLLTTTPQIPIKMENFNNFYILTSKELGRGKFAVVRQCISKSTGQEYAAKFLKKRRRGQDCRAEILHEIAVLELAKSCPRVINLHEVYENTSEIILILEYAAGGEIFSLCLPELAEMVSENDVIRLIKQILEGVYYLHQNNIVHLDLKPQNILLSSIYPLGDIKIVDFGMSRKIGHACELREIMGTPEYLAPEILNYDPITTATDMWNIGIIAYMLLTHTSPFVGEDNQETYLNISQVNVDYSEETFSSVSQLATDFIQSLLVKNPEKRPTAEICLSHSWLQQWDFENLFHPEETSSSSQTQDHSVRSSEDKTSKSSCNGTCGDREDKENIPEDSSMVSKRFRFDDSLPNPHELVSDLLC

| SMILES | kinase still bound, per cent of control [1] [%] | kinase still bound, per cent of control [2] [%] | kinase still bound, per cent of control [3] [%] | kinase still bound, per cent of control [4] [%] | kinase still bound, per cent of control [5] [%] | kinase still bound, per cent of control [6] [%] | kinase still bound, per cent of control [7] [%] | kinase still bound, per cent of control [8] [%] | kinase still bound, per cent of control [9] [%] | kinase still bound, per cent of control [10] [%] | kinase still bound, per cent of control [11] [%] | kinase still bound, per cent of control [12] [%] | kinase still bound, per cent of control [13] [%] | kinase still bound, per cent of control [14] [%] | kinase still bound, per cent of control [15] [%] | kinase still bound, per cent of control [16] [%] | kinase still bound, per cent of control [17] [%] | kinase still bound, per cent of control [18] [%] | kinase still bound, per cent of control [19] [%] | kinase still bound, per cent of control [20] [%] | also measured |
| --- | --- | --- | --- | --- | --- | --- | --- | --- | --- | --- | --- | --- | --- | --- | --- | --- | --- | --- | --- | --- | --- |
| Cc1ccc2nc(NCCN)c3ncc(C)n3c2c1 | 73 | 98 | 15 | 100 | 100 | 100 | 100 | 100 | 99 | 93 | 100 | 100 | 95 | 85 | 90 | 100 | 100 | 79 | 100 | 6.3 | kinase still bound, per cent of control [21]: 40%; kinase still bound, per cent of control [22]: 100%; kinase still bound, per cent of control [23]: 93%; kinase still bound, per cent of control [24]: 100%; kinase still bound, per cent of control [25]: 32%; kinase still bound, per cent of control [26]: 84%; kinase still bound, per cent of control [27]: 80%; kinase still bound, per cent of control [28]: 100%; kinase still bound, per cent of control [29]: 100%; kinase still bound, per cent of control [30]: 97%; kinase still bound, per cent of control [31]: 85%; kinase still bound, per cent of control [32]: 92%; kinase still bound, per cent of control [33]: 100%; kinase still bound, per cent of control [34]: 100%; kinase still bound, per cent of control [35]: 100%; kinase still bound, per cent of control [36]: 53%; kinase still bound, per cent of control [37]: 100%; kinase still bound, per cent of control [38]: 100%; kinase still bound, per cent of control [39]: 100%; kinase still bound, per cent of control [40]: 100% |
| CCCS(=O)(=O)Nc1ccc(F)c(C(=O)c2c[nH]c3ncc(-c4ccc(Cl)cc4)cc23)c1F | 98 | 43 | 100 | 91 | 84 | 64 | 100 | 82 | 93 | 65 | 73 | 16 | 100 | 100 | 48 | 71 | 100 | 100 | 88 | 82 | kinase still bound, per cent of control [21]: 75%; kinase still bound, per cent of control [22]: 82%; kinase still bound, per cent of control [23]: 2.5%; kinase still bound, per cent of control [24]: 63%; kinase still bound, per cent of control [25]: 34%; kinase still bound, per cent of control [26]: 100%; kinase still bound, per cent of control [27]: 56%; kinase still bound, per cent of control [28]: 100%; kinase still bound, per cent of control [29]: 96%; kinase still bound, per cent of control [30]: 100%; kinase still bound, per cent of control [31]: 100%; kinase still bound, per cent of control [32]: 59%; kinase still bound, per cent of control [33]: 49%; kinase still bound, per cent of control [34]: 100%; kinase still bound, per cent of control [35]: 53%; kinase still bound, per cent of control [36]: 100%; kinase still bound, per cent of control [37]: 87%; kinase still bound, per cent of control [38]: 32%; kinase still bound, per cent of control [39]: 100%; kinase still bound, per cent of control [40]: 100% |
